Measured values taken from PubChem BioAssay (NCI).
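Growth conditions: 96-well plates. Treatment: test compound, 48 hours, 5 concentrations. Analysis: linear interpolation between bracketing concentrations; unreached endpoints set to highest concentration. The concentration for 50% growth inhibition is given as GI50. TGI is the concentration that stops growth completely.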

What was measured:
Experiment in all cases: inhibition of tumour cell growth, NCI panel, 48 h
MDA-MB-435 = system: MDA-MB-435
HOP-92 NSCLC = system: HOP-92 NSCLC
LOX IMVI melanoma = system: LOX IMVI melanoma
EKVX NSCLC = system: EKVX NSCLC
SF-268 CNS = system: SF-268 CNS
SW-620 colon = system: SW-620 colon
UACC-257 melanoma = system: UACC-257 melanoma
SK-MEL-28 melanoma = system: SK-MEL-28 melanoma
HCT-116 colon = system: HCT-116 colon
NCI-H23 lung = system: NCI-H23 lung

| SMILES | TGI (MDA-MB-435) [µM] | TGI (HOP-92 NSCLC) [µM] | TGI (LOX IMVI melanoma) [µM] | TGI (EKVX NSCLC) [µM] | TGI (SF-268 CNS) [µM] | TGI (SW-620 colon) [µM] | TGI (UACC-257 melanoma) [µM] | TGI (SK-MEL-28 melanoma) [µM] | TGI (HCT-116 colon) [µM] | TGI (NCI-H23 lung) [µM] | GI50 (MDA-MB-435) [µM] | GI50 (HOP-92 NSCLC) [µM] | GI50 (EKVX NSCLC) [µM] | GI50 (SF-268 CNS) [µM] | GI50 (SW-620 colon) [µM] | GI50 (UACC-257 melanoma) [µM] | GI50 (SK-MEL-28 melanoma) [µM] | GI50 (HCT-116 colon) [µM] | GI50 (NCI-H23 lung) [µM] | GI50 (LOX IMVI melanoma) [µM] |
| --- | --- | --- | --- | --- | --- | --- | --- | --- | --- | --- | --- | --- | --- | --- | --- | --- | --- | --- | --- | --- |
| O=C(NC1(C(=O)O)CC1c1ccccc1)c1ccccc1 (stereo not given) | > 100 | > 100 | > 100 | > 100 | > 100 | > 100 | > 100 | > 100 | > 100 | > 100 | – | – | – | – | – | – | – | – | – | – |
| N=C(N)c1ccc(-c2ccc(-c3ccc(F)cc3)o2)o1 | 1.3 | 2.95 | – | 3.18 | 4.67 | 2.38 | 3.69 | 3.18 | 2.59 | 4.88 | 0.347 | 1.21 | 1.35 | 1.92 | 0.943 | 1.98 | 1.63 | 1.18 | 1.93 | – |
| COc1cc2c3c(n(CCCNCCNCCCN)c(=O)c2cc1OC)-c1cc2c(cc1C3=O)OCO2 | 15.6 | 72.2 | 3.75 | 69.9 | 11.4 | 10.7 | 30.9 | 20.1 | 2.56 | 10.9 | 3.45 | 21 | 29.8 | 1.99 | 2.03 | 9.51 | 6.6 | 1.29 | 2.73 | 1.08 |
| Oc1cc(Cl)ccc1Cc1ccc(Cl)cc1O | 24.5 | 8.11 | 18.2 | 36 | 27.7 | 21.4 | 36.9 | 20.7 | 17.1 | 12.6 | 5.37 | 2.67 | 5.56 | 9.44 | 9.73 | 14.7 | 8.26 | 4.95 | 3.21 | 5.84 |
| NC1=C(Cl)C(=O)c2ccccc2C1=O | 2.05 | 33.7 | 7.91 | 28.4 | 33.2 | 14.6 | 8.38 | 11.3 | 11.6 | 6.32 | – | – | – | – | – | – | – | – | – | – |
| c1cncc(CNc2ncn[nH]2)c1 | > 100 | > 100 | > 100 | > 100 | > 100 | > 100 | > 100 | > 100 | > 100 | > 100 | – | – | – | – | – | – | – | – | – | – |
| O=[N+]([O-])c1cccc(-c2cc(-c3cc(Br)ccc3O)[nH]n2)c1 | 4.58 | 8.08 | 8.62 | 7.91 | 12.7 | 12.3 | 6.49 | 10.5 | 2.86 | 6.11 | 1.77 | 2.38 | 2 | 2.86 | 2.81 | 2.5 | 2.88 | 1.46 | 2.06 | 2.73 |
| O=[N+]([O-])/C=C/c1ccc([N+](=O)[O-])cc1 | 3.99 | 28.9 | 2.73 | 31.8 | 12.9 | 3.21 | 5.01 | 7.57 | 3.08 | 5.2 | 1.74 | 13 | 14.1 | 3.65 | 1.49 | 1.88 | 2.74 | 1.52 | 2.07 | 1.32 |
| N#C[C@H]1Nc2ccccc2[C@@H](O)C1O (stereo not given in full) | > 100 | > 100 | > 100 | > 100 | > 100 | > 100 | > 100 | > 100 | > 100 | > 100 | – | – | – | – | – | – | – | – | – | – |
| O=C(/C=C\c1ccc2ccccc2n1)c1cc(Cl)ccc1O | 21.7 | 9.35 | 11.7 | 87.5 | 27.2 | 3.84 | 63.2 | 49.6 | 11.3 | 19.7 | 3.66 | 1.82 | 13.7 | 12.2 | 1.84 | 24.3 | 18.7 | 3.38 | 5.9 | 2.84 |
| CC(C)=CC1CC(C)C2(CCC3(C)CC4C(C(=O)CC4(C)O)/C(C=O)=C\CC32)O1 (stereo not given) | 0.197 | 0.2 | 0.182 | 0.346 | 0.275 | – | 0.28 | 0.277 | 0.15 | 0.264 | – | – | – | – | – | – | – | – | – | – |
| COC(=O)[C@@H]1CCCN1C(=O)[C@H]1CCCN1C(=O)[C@@H](Cc1c[nH]c2ccccc12)NC(=S)Nc1cc(C(F)(F)F)cc(C(F)(F)F)c1 | 9.07 | 3.43 | 4.29 | – | 12.1 | 11.2 | 6.99 | 10.2 | 4.14 | 11.4 | 2.9 | 1.12 | – | 3.51 | 3.19 | 2.5 | 3.05 | 1.96 | 3.13 | 1.95 |
| Cc1ccc(Oc2nc3ccccc3cc2-c2nnc(Cn3c(COc4ccccc4)nc4ccccc43)o2)cc1 | 11.9 | 5.37 | 4.32 | – | 15.9 | 4.79 | 14.9 | – | 1.64 | 20.7 | 3.06 | 1.27 | – | 3.41 | 1.08 | 3.28 | – | 0.431 | 4.66 | 1.59 |
| CO/N=C(/COc1c(-c2ccccc2)oc2ccccc2c1=O)c1ccc(F)cc1 | > 100 | – | > 100 | > 100 | – | > 100 | > 100 | > 100 | > 100 | > 100 | > 100 | – | > 100 | – | > 100 | > 100 | > 100 | 39.3 | > 100 | 69.9 |
| COc1ccc(-n2c3c(c4c(CN(C)C)c(O)c(C)cc42)CCc2ccccc2C3=O)cc1 | 40.4 | > 100 | 45.2 | > 100 | > 100 | > 100 | > 100 | – | > 100 | 69 | 14 | 41.9 | 44.5 | 61.9 | 32.5 | 78.1 | – | 34.4 | 14 | 17.1 |
